IC50 data for eleven compounds are collected here from patent US12668600B2 (Kumquat Biosciences Inc., priority 2023, dated 2026).

The assay deals with T1, KRAS G12D (Homo sapiens, UniProt P01116, G12D).
T1 construct: made in house; host or cells: E. coli, e.g. BL21 (DE3)
T1 sequence (P01116 1-188 isoform P01116-2 G12D): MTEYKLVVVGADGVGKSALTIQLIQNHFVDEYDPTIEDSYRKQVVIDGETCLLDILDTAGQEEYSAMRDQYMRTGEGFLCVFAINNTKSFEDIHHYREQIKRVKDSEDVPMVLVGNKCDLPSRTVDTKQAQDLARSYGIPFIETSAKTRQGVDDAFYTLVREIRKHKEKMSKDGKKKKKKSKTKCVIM
Description: HTRF KRAS-SOS1 interaction assay, KRAS G12D. The note with it: binned ≤2 μM / >2 μM, read-out: Inhibition of KRAS G12D (IC50). Type of assay: biochemical. From the text: This assay can be also used to assess a selective inhibition or reduction of signaling output of a mutant Ras protein relative to a wildtype, or relative to a different mutant Ras protein. For example, the equilibrium interaction of wildtype KRAS or K-Ras mutant (e.g., wildtype or a mutant thereof) with SOS1 (e.g., hSOS1) can be assessed as a proxy or an indication for the ability of a subject compound to bind and inhibit Ras protein. The HTRF assay detects from (i) a fluorescence resonance energy transfer (FRET) donor (e.g., antiGST-Europium) that is bound to GST-tagged K-Ras mutant to (ii) a FRET acceptor (e.g., anti-6His-XL665) bound to a His-tagged hSOS1.
The assay buffer can contain ˜5 mM HEPES pH 7.4, ˜150 mM NaCl, ˜1 mM DTT, 0.05% BSA and 0.0025% (v/v) Igepal. A Ras working solution is prepared in an assay buffer containing typically a suitable amount of the protein construct (e.g., GST-tagged K-Ras mutant) and the FRET donor (e.g., antiGST-Eu (K) from Cisbio, France). A SOS1 working solution is prepared in an assay buffer containing suitable amount of the protein construct (e.g., His-hSOS1) and the FRET acceptor (e.g., anti-6His-XL665 from Cisbio, France). A suitable amount of the protein construct will depend on the range of activity or range of IC50 values being detected or under investigation. For detecting an IC50 within a range of 500 nM, the protein constructs of the same range of molarity can be utilized.
A fixed volume of DMSO with or without test compound is transferred into a 384-well plate. Ras working solution is added to all wells of the test plate. SOS1 working solution is added to all wells except for those that are subsequently filled with inhibitor control solution. Upon incubation for about 10 minutes or longer, the fluorescence is measured with a M1000Pro plate reader (Tecan) using HTRF detection (excitation 337 nm, emission 1:620 nm, emission 2:665 nm). Compounds are tested in duplicate at different concentrations (for example, 10 μM, 2.5 μM, 0.63 μM, 0.16 μM, 0.04 μM, 0.01 μM test compound). The ratiometric data (i.e., emission 2 divided by emission 1) is used to calculate IC50 values against Ras using GraphPad Prism (GraphPad software). Signaling output measured in terms of IC50 values can be obtained and a ratio of IC50 against one mutant relative to another mutant can be calculated.
Broadly, the IC50 is the concentration needed to halve the response being measured. For the compound `CC(c1cccnc1N)N1c2nc(OC[C@@]34CCCN3C[C@H](F)C4)nc3c(F)c(-c4ccc(F)c5sc(N)c(C#N)c45)c(Cl)c(c23)OC[C@@H]1CC#N` (mixture of isomers) [Compound 716, 2-amino-4-((5S)-4-(1-(2-aminopyridin-3-yl)ethyl)-8-chloro-5-(cyanomethyl)-10-fluoro-2-(((2R,7aS)-2-fluorotetrahydro-1H-pyrrolizin-7a(5H)-yl)methoxy)-5,6-dihydro-4H-[1,4]oxazepino[5,6,7-de]quinazolin-9-yl)-7-fluorobenzo[b]thiophene-3-carbonitrile], the IC50 is no more than 2000 nM. As for `N#Cc1c(N)sc2c(F)ccc(-c3c(Cl)c4c5c(nc(OC[C@@]67CCCN6C[C@H](F)C7)nc5c3F)N(C(CC(F)F)c3cccnc3N)CCO4)c12` (mixture of isomers) [Compound 776, 2-amino-4-(4-(1-(2-aminopyridin-3-yl)-3,3-difluoropropyl)-8-chloro-10-fluoro-2-(((2R,7aS)-2-fluorotetrahydro-1H-pyrrolizin-7a(5H)-yl)methoxy)-5,6-dihydro-4H-[1,4]oxazepino[5,6,7-de]quinazolin-9-yl)-7-fluorobenzo[b]thiophene-3-carbonitrile], the IC50 is no more than 2000 nM.

On to `CCC(c1cccnc1N)N1CCOc2c(Cl)c(-c3ccc(F)c4sc(N)c(C#N)c34)c(F)c3nc(OC[C@@]45CCCN4C[C@H](F)C5)nc1c23` (mixture of isomers) [Compound 844, 2-amino-4-(4-(1-(2-aminopyridin-3-yl)propyl)-8-chloro-10-fluoro-2-(((2R,7aS)-2-fluorotetrahydro-1H-pyrrolizin-7a(5H)-yl)methoxy)-5,6-dihydro-4H-[1,4]oxazepino[5,6,7-de]quinazolin-9-yl)-7-fluorobenzo[b]thiophene-3-carbonitrile], for which the IC50 is no more than 2000 nM. In the case of `C[C@H](c1cccnc1N)N1CCOc2c(Cl)c(-c3cccc4sc(N)c(C#N)c34)c(F)c3nc(OC[C@@]45CCCN4CC(=C(F)F)C5)nc1c23` (single isomer, unassigned) [Compound 688], the IC50 was no more than 2000 nM. For `N#Cc1c(N)sc2c(F)ccc(-c3c(C(F)(F)F)c4c5c(nc(OC[C@@]67CCCN6C[C@H](F)C7)nc5c3F)N([C@H](CCC3CCOCC3)c3cccnc3N)CCO4)c12` (single isomer, unassigned) [Compound 696], the IC50 is no more than 2000 nM.

For the compound `CC(c1cncnc1N)N1CCOc2c(Cl)c(-c3ccc(F)c4sc(N)c(C#N)c34)c(F)c3nc(OC[C@@]45CCCN4C[C@H](F)C5)nc1c23` (single isomer, unassigned) [Compound 699], the IC50 was no more than 2000 nM. In the case of `N#Cc1c(N)sc2c(F)ccc(-c3c(C(F)(F)F)c4c5c(nc(OC[C@@]67CCCN6C[C@H](F)C7)nc5c3F)N([C@H](CCC3COCCO3)c3cccnc3N)CCO4)c12` (single isomer, unassigned) [Compound 701], the IC50 is no more than 2000 nM. For the compound `N#Cc1c(N)sc2c(F)ccc(-c3c(C(F)(F)F)c4c5c(nc(OC[C@@]67CCCN6C[C@H](F)C7)nc5c3F)N([C@H](CC3CC(F)(F)C3)c3cccnc3N)CCO4)c12` (single isomer, unassigned) [Compound 703], the IC50 was no more than 2000 nM. To `N#Cc1c(N)sc2c(F)ccc(-c3c(Cl)c4c5c(nc(OC[C@@]67CCCN6C[C@H](F)C7)nc5c3F)N(C(C=C(F)F)c3cccnc3N)CCO4)c12` (single isomer, unassigned) [Compound 712] belongs no more than 2000 nM; to `N#Cc1c(N)sc2c(F)ccc(-c3c(C(F)(F)F)c4c5c(nc(OC[C@@]67CCCN6C[C@H](F)C7)nc5c3F)N([C@H](CCC3CC(F)(F)C3)c3cccnc3N)CCO4)c12` (single isomer, unassigned) [Compound 724], no more than 2000 nM; to `C[C@H](c1ccc(F)nc1N)N1CCOc2c(C(F)(F)F)c(-c3ccc(F)c4sc(N)c(C#N)c34)c(F)c3nc(OC[C@@]45CCCN4C[C@H](F)C5)nc1c23` (single isomer, unassigned) [Compound 726], no more than 2000 nM.
